A short description of this data set: solvent given as SMILES.

Several values for one entry are separate records, joined by “and”; a condition that tells them apart may be missing. Equal values may be shown once.

Regarding `c1ccc(-c2cc3c(-c4ccccc4)c4cccc5c(-c6ccccc6)cc6c(-c7ccccc7)c7cccc2c7c3c6c54)cc1`, the absorption maximum (in ClCCl) was 454 nm.

`CCN(CC)c1ccc2cc(-c3ccc(-c4ccc5c6ccccc6c6c7cc(-c8ccc(-c9cc%10ccc(N(CC)CC)cc%10oc9=O)cc8)ccc7c7ccccc7c6c5c4)cc3)c(=O)oc2c1` came in with an absorption maximum (in ClC(Cl)Cl) of 412 nm.

For the setting “in ClCCl”, `CCCCC(CC)Cn1c2cc(C#N)c(-c3ccc(N(c4ccccc4)c4ccccc4)cc3)cc2c2cc(-c3ccc(N(c4ccccc4)c4ccccc4)cc3)c(C#N)cc21` (stereo not drawn) yielded an absorption maximum of 420 nm.

The compound `CCOC(=O)/C(=C1\C(=O)C(O)=C1C=C1N(C)c2ccccc2C1(C)C)[N+](=O)[O-]` came in with an absorption maximum (in CCO) of 475 nm.

`CC1(C)c2ccccc2N(c2ccccc2)c2ccc(-c3nc(-c4ccccc4)nc(-c4ccccc4)n3)cc21`: the absorption maximum (in Cc1ccccc1) worked out at 389.97 nm.

Regarding `CCCCCC(=O)c1cccc2sc3c(c12)P(=O)(c1ccccc1)c1ccccc1-3` (stereo not drawn), under “in ClCCl”, the absorption maximum was 359 nm and 380 nm.

Consider `CCOC(=O)c1c(-c2cc3ccc(OCC=C(C)C)cc3oc2=O)nn(-c2cccc(Cl)c2)c1C(=O)OCC`, for which, where the note is “in ClCCl”, the absorption maximum is on record as 339 nm.

`CCCCCCc1ccc(-n2c3c(c4c2c2c(n4-c4ccc(CCCCCC)cc4)-c4cccc(OC)c4NB2c2ccccc2)B(c2ccccc2)Nc2c(OC)cccc2-3)cc1` displayed an absorption maximum (in Cc1ccccc1) of 382 nm.

`CCCCCCN1C(=O)c2cccc3c(-c4ccc(-c5cc(-c6ccc(C)cc6)nn5-c5ccccc5)s4)ccc(c23)C1=O` registered an absorption maximum (in ClCCl) of 389 nm.

`COC(=O)c1ccc(C2=C3C=c4sc(-c5cccs5)cc4=[N+]3[B-](F)(F)n3c2cc2sc(-c4cccs4)cc23)cc1` registered an absorption maximum (in ClCCl) of 684 nm.

`C[C@@]12SC(Cl)=CC1=c1nc(-c3ccccc3)[nH]c1=C1C=C(Cl)S[C@]12C` displayed an absorption maximum (in CC#N) of 322 nm.

`CC[N+]1(CC)CN2C(C)=CC(C)=C(C(=O)O)C2=N1` came in with an absorption maximum (in CN(C)C=O) of 346 nm and an absorption maximum (in O) of 343 nm.

Regarding `CCCCCCCCCCOc1cc(OCCCCCCCCCC)cc(C2=C3C(/C=C/c4ccc(OC)cc4)=CC(/C=C/c4ccc(OC)cc4)=[N+]3[B-](F)(F)n3c(/C=C/c4ccc(OC)cc4)cc(C=Cc4ccc(OC)cc4)c32)c1`, where the note is “in ClC(Cl)Cl”, the absorption maximum came to 689 nm.

With `COCCC1=Cc2nc1ccc1[nH]c(cc1CCOC)c1nc(c(NC(=O)CCCC(=O)OC)cc3[nH]c2cc3CCOC)C(CCOC)=C1`, the absorption maximum (in Cc1ccccc1) came to 670 nm.

Where the note is “in Cc1ccccc1”, `N#Cc1c(N2c3ccccc3C(c3ccccc3)(c3ccccc3)c3ccccc32)cccc1N1c2ccccc2C(c2ccccc2)(c2ccccc2)c2ccccc21` displayed an absorption maximum of 369 nm.

Compound `CC1=[N+]2C(=C(c3ccc(C(=C(c4ccccc4)c4ccccc4)c4ccccc4)cc3)c3ccc(/C=C/c4ccc(C(=C(c5ccccc5)c5ccccc5)c5ccccc5)cc4)n3[B-]2(F)F)C=C1` registered an absorption maximum (in C1CCOC1) of 587 nm.

With `CC1(C)c2ccccc2N(c2ccc(-c3nc4c(C#N)ccc(C#N)c4nc3-c3ccc(N4c5ccccc5C(C)(C)c5ccccc54)cc3)cc2)c2ccccc21`, the absorption maximum (in Cc1ccccc1) stood at 479 nm.

Where the note is “in Cc1ccccc1”, `CC(C)(C)c1ccc2c(c1)c1cc(C(C)(C)C)ccc1n2-c1ccc(-n2c3ccc(C(C)(C)C)cc3c3cc(C(C)(C)C)ccc32)c(C(=O)c2ccncc2)c1` registered an absorption maximum of 418 nm.

In turn, `Cc1cc(C)c2nc3c(=O)n(C)c(=O)nc-3n(C)c2c1` showed an absorption maximum (in CC#N) of 446 nm.

For the compound `CCCC1(CCC)c2ccccc2-c2ccc(-c3ccc4c(c3)C(CCC)(CCC)c3cc(-c5ccc6c(c5)C(CCC)(CCC)c5ccccc5-6)ccc3-4)cc21`, for the setting “in C1CCCCC1”, the absorption maximum was determined as 350 nm.

Under “in ClCCl”, `CCCCCCCCCCCCN1C(=O)c2c(c3ccc4cc(-c5ccc(-c6ccccc6)cc5)c(OC)cc4c3c3c2ccc2cc(-c4ccc(-c5ccccc5)cc4)c(OC)cc23)C1=O` displayed an absorption maximum of 437 nm.

In turn, `CCOC(=O)/C(C)=C/C1=C(c2ccc(C)cc2)C2=Nc3c(-c4ccc(C)cc4)c(-c4ccc(OC)cc4)c(-c4ccc(C)cc4)n3[B-](F)(F)[N+]2=C1c1ccc(C)cc1` showed an absorption maximum (in ClC(Cl)Cl) of 670 nm.

The compound `CC(C)c1cc(C(C)C)c(-c2ccc(-n3c4ccccc4n4c5ccccc5nc34)nc2)c(C(C)C)c1` had an absorption maximum (in Cc1ccccc1) of 345 nm.

Compound `COc1ccc(C(=O)COc2c(C)c(=O)n3c(=O)c(C)c(COC(=O)c4ccccc4Cl)n23)cc1` gave an absorption maximum (in CCO) of 382 nm.

In turn, `CC(C)(C)c1ccc(-c2nc3c4ccccc4c4ccccc4c3n2-c2ccc(-c3ccc(N(c4ccccc4)c4ccccc4)cc3)cc2)cc1` gave an absorption maximum (in ClCCl) of 332 nm.

`FC(F)(F)c1ccc(/C=C/c2nc3c(ccc4ccccc43)s2)cc1`: the absorption maximum is, setting by setting: (in C1CCCCC1) 375 nm; (in CC#N) 369 nm.

Where the note is “in C1CCOC1”, `F[Si-](F)(c1ccccc1)(c1ccccc1)c1cccc2ccccc12` came in with an absorption maximum of 286 nm.

For the setting “in Cc1ccccc1”, `CC1(C)c2ccccc2N(c2ccc(-c3nc4cc(C#N)c(C#N)cc4nc3-c3ccc(N4c5ccccc5C(C)(C)c5ccccc54)cc3)cc2)c2ccccc21` gave an absorption maximum of 454 nm.

For the setting “in Cc1ccccc1”, `CC1(C)c2ccccc2N(c2ccccc2)c2ccc(C(=O)c3ccc4c(c3)C(C)(C)c3ccccc3N4c3ccccc3)cc21` had an absorption maximum of 371.57 nm.

Consider `Cc1nc2cc3c4c(cccc4c2o1)C(=O)OC3=O`, for which the absorption maximum (in CCO) stood at 362 nm.

As to `Cc1cc2c3ccccc3n(C)c2c2c1c1ccccc1n2C`, the absorption maximum (in ClCCl) is reported as 329 nm.

Turning to `c1cc2c3c4c5c(cccc5cc3c1)-c1cccn1B4n1cccc1-2`, the absorption maximum (in C1CCOC1) worked out at 505 nm.

`CCCCC[n+]1ccc(/C=C/c2ccc(N(C)C)c3ccccc23)c2ccccc21` returned an absorption maximum (in C1CCOC1) of 502 nm; an absorption maximum (in C1COCCO1) of 495 nm; an absorption maximum (in CC#N) of 496 nm; an absorption maximum (in CC(C)=O) of 503 nm; an absorption maximum (in CCCCO) of 522 nm; an absorption maximum (in CCO) of 508 nm. The absorption maximum is recorded as 501 nm (in CN(C)C=O); 503 nm (in CO); 506 nm (in CS(C)=O); 522 nm (in ClC(Cl)Cl); 452 nm (in O); 494 nm (in c1ccccc1). The compound also gave an absorption maximum (in c1ccncc1) of 526 nm.

As to `CN(C)c1ccc(C2=[N+]3C(=Nc4c(-c5ccccc5)cc(-c5ccc(N(C)C)cc5)n4[B-]3(F)F)C(c3ccccc3)=C2)cc1`, the absorption maximum (in ClC(Cl)Cl) was found to be 799 nm.

For `Cc1cc(C)c(C2=C3C=CC=[N+]3[B-]3(c4cccc5ccccc45)Oc4cc(O)cc5c6ccc(C)cc6c6cc2n3c6c45)c(C)c1` (stereo not drawn), the absorption maximum (in ClC(Cl)Cl) was found to be 646 nm.

For the compound `Cc1c(C)n2c(COC(=O)c3ccc(F)cc3)c(C)c(=O)n2c1=O`, for the setting “in CCO”, the absorption maximum is 375 nm.

In the case of `Cc1ccc2nc3cc4c5c(cccc5c3nc2c1)C(c1ccccc1)=C(c1ccccc1)O4`, the absorption maximum (in ClCCl) is reported as 491 nm.

As for `O=C([O-])c1ccccc1-c1c2cc(I)c(=O)c(I)c-2oc2c(I)c([O-])c(I)cc12`, the absorption maximum (in CC(C)O) turned out to be 532 nm, the absorption maximum (in CCO) is 532 nm, the absorption maximum (in CO) was found to be 526 nm and the absorption maximum (in O) came out at 521 nm.

On to `N#Cc1nc(N(Cc2ccccc2Br)Cc2ccccc2Br)c(C#N)nc1N(Cc1ccccc1Br)Cc1ccccc1Br`, for which the absorption maximum (in ClC(Cl)Cl) is recorded as 485 nm.

Where the note is “in ClC(Cl)Cl”, `CCC(CC)n1c2ccccc2c2cc3c(cc21)c1ccccc1n3C(CC)CC` yielded an absorption maximum of 419 nm.

Under “in ClC(Cl)Cl”, `CN1C(=CC2=C([O-])C(=CC3=[N+](C)c4ccccc4C3(C)C)C2=C2C(=O)c3ccccc3C2=O)C(C)(C)c2ccccc21` had an absorption maximum of 675 nm.

Turning to `CCCCn1c2ccc(C#Cc3cccs3)cc2c2c1c1c3ccc(C#Cc4cccs4)cc3n(CCCC)c1c1c3ccc(C#Cc4cccs4)cc3n(CCCC)c21`, the absorption maximum (in C1CCOC1) came out at 348 nm.

As for `CCCCCCCCCCC1(CCCCCCCCCC)c2cc(N3C(=O)c4ccc5c6ccc7c8c(ccc(c9ccc(c4c59)C3=O)c86)C(=O)N(c3ccc4c(c3)C(CCCCCCCCCC)(CCCCCCCCCC)c3cc(N(c5ccccc5)c5ccccc5)ccc3-4)C7=O)ccc2-c2ccc(N(c3ccccc3)c3ccccc3)cc21`, the absorption maximum reads like this: (in Cc1ccccc1) 528 nm; (in ClCCl) 527 nm.

`C(/C=C/Nc1cccc2ccccc12)=[NH+]c1cccc2ccccc12` gave an absorption maximum (in CS(C)=O) of 391 nm.

In turn, `C(C#Cc1ccc2ccc3cccc4ccc1c2c34)#Cc1cccc2ccccc12` yielded an absorption maximum (in C1CCCCC1) of 409 nm, an absorption maximum (in CC#N) of 407 nm, an absorption maximum (in CO) of 406 nm and an absorption maximum (in ClCCl) of 412 nm.

Compound `COc1ccc(C#Cc2nc3ccccc3nc2-c2ccn(-c3ccccc3)c2)cc1` registered an absorption maximum (in ClCCl) of 393 nm.

In the case of `CCCCN1\C(=C/C=C/C=C/C2=[N+](CCCC)c3ccc4cc(Br)ccc4c3C2(C)C)C(C)(C)c2c1ccc1cc(Br)ccc21`, the absorption maximum is given as 685 nm (in C1CCOC1); 682 nm (in CC#N); 685 nm (in CC(C)=O); 688 nm (in CCO); 689 nm (in CN(C)C=O); 683 nm (in CO). Besides, the absorption maximum is, setting by setting: (in CS(C)=O) 692 nm; (in ClCCl) 699 nm.

Under “in CO”, `O=C(O)CCCc1cc2ccc3cccc4ccc(c1)c2c34` had an absorption maximum of 374 nm.

The compound `Cc1ccc2nnn(-c3c(C#N)c4c(N)ncnc4n3[C@H]3C[C@H](O)[C@@H](CO)O3)c2c1` displayed an absorption maximum (in CO) of 278 nm.

On to `N#Cc1ccc(-c2cn3cc(-c4ccccc4)c[n+]3[n-]2)cc1`, for which the absorption maximum (in ClCCl) worked out at 383 nm.

These data come from the Deep4Chem optical property database.
